The source of these data is patent US9656962B2, “Ring-contracted morphinans and the use thereof” (Purdue Pharma L.P., priority 2013, dated 2017).

Molecules are shown by their SMILES.

The target of assay [1] is T1, μ-opioid receptor (Homo sapiens (Human), UniProt P35372). Briefly: μ-opioid receptor radioligand binding assay ([3H]-diprenorphine). The following applies: binding affinity. Here is the method: μ-Opioid Receptor Binding Assay Procedures: Radioligand dose-displacement binding assays for μ-opioid receptors used 0.3 nM [^3H]-diprenorphine (Perkin Elmer, Shelton, Conn.), with […] membrane protein/well in a final volume of 500 μl binding buffer (10 mM MgCl2, 1 mM EDTA, 5% DMSO, 50 mM HEPES, pH 7.4). Reactions were carried out in the absence or presence of increasing concentrations of unlabeled naloxone. All reactions were conducted in 96-deep well polypropylene plates for 2 hours at room temperature. Binding reactions were terminated by rapid filtration onto 96-well Unifilter GF/C filter plates (Perkin Elmer, Shelton, Conn.), presoaked in 0.5% polyethylenimine using a 96-well tissue harvester (Perkin Elmer, Shelton, Conn.) followed by performing three filtration washes with 500 μl of ice-cold binding buffer. Filter plates were subsequently dried at 50° C. for 2-3 hours. BetaScint scintillation cocktail (Perkin Elmer, Shelton, Conn.) was added (50 μl/well), and plates were counted using a Packard Top-Count for 1 min/well. The data were analyzed using the one-site competition curve fitting functions in GraphPad PRISM™ v. 3.0 or higher (San Diego, Calif.), or an in-house function for one-site competition curve-fitting.

For assay [2], the target named is recombinant human kappa opioid receptor (κ) (Homo sapiens (Human), UniProt P41145). The assay can be described thus: κ-opioid receptor radioligand binding assay ([3H]-U69,593). Particulars: binding affinity. Here is the method:
κ-Opioid Receptor Binding Assay Procedures: Membranes from HEK-293 cells, CHO cells or U-2 OS cells expressing the recombinant human kappa opioid receptor (κ) were prepared by lysing cells in ice cold hypotonic buffer (2.5 mM MgCl2, 50 mM HEPES, pH 7.4) (10 mL/10 cm dish) followed by homogenization with a tissue grinder/Teflon pestle. Membranes from a cell line naturally expressing kappa opioid receptor can also be used. Membranes were collected by centrifugation at 30,000×g for 15 min at 4° C. and pellets were resuspended in hypotonic buffer to a final concentration of 1-3 mg/mL. Protein concentrations were determined using the BioRad protein assay reagent with bovine serum albumen as standard. Aliquots of κ receptor membranes were stored at −80° C.
Radioligand dose displacement assays used 0.4 nM [^3H]-U69,593 (GE Healthcare, Piscataway, N.J.; 40 Ci/mmole) with 15 μg membrane protein (recombinant opioid receptor expressed in HEK 293 cells; in-house prep) in a final volume of 200 μl binding buffer (5% DMSO, 50 mM Trizma base, pH 7.4). Non-specific binding was determined in the presence of 10 μM unlabeled naloxone or U69,593. All reactions were performed in 96-well polypropylene plates for 1 hour at a temperature of about 25° C. Binding reactions were terminated by rapid filtration onto 96-well Unifilter GF/C filter plates (Perkin Elmer, Shelton, Conn.) presoaked in 0.5% polyethylenimine (Sigma). Harvesting was performed using a 96-well tissue harvester (Perkin Elmer, Shelton, Conn.) followed by five filtration washes with 200 μl ice-cold binding buffer. Filter plates were subsequently dried at 50° C. for 1-2 hours. Fifty μl/well scintillation cocktail (Perkin Elmer, Shelton, Conn.) was added and plates were counted in a Packard Top-Count for 1 min/well.

Assay [3] addresses T1, μ-opioid receptor. Briefly: μ-opioid receptor [35S]GTPγS functional assay, HEK-293 or CHO cells (Table 4). In kind it is biochemical. The following applies: for Emax: relative to DAMGO; for EC50: μ GTP. The essentials: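 Membranes from HEK-293, CHO or U-2 OS cells (or commercial) expressing recombinant μ receptor; 0.20 nM [35S]GTPγS, 3 mM GDP, saponin, in 100 mM NaCl/10 mM MgCl2/20 mM HEPES pH 7.4.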
For orientation: GTPγS resists hydrolysis and so accumulates on activated G proteins.

In assay [4] the target is T2, κ-opioid receptor (Homo sapiens (Human), UniProt P41145). The assay can be described thus: κ-opioid receptor [35S]GTPγS functional assay, HEK-293 or CHO cells (Table 4). The format is biochemical. Particulars: for Emax: relative to U69,593; for EC50: κ GTP. The procedure: κ-Opioid Receptor Functional Assay Procedures: Functional [^35S]GTPγS binding assays were conducted as follows. κ opioid receptor membrane solution was prepared by sequentially adding final concentrations of 0.026 μg/μl κ membrane protein (in-house), 10 μg/mL saponin, 3 μM GDP and 0.20 nM [^35S]GTPγS to binding buffer (100 mM NaCl, 10 mM MgCl2, 20 mM HEPES, pH 7.4) on ice. The prepared membrane solution (190 μl/well) was transferred to 96-shallow well polypropylene plates containing 10 μl of 20× concentrated stock solutions of agonist prepared in DMSO. Plates were incubated for 30 min at a temperature of about 25° C. with shaking. Reactions were terminated by rapid filtration onto 96-well Unifilter GF/B filter plates (Perkin Elmer, Shelton, Conn.) using a 96-well tissue harvester (Packard) and followed by three filtration washes with 200 μl ice-cold binding buffer (10 mM NaH2PO4, 10 mM Na2HPO4, pH 7.4). Filter plates were subsequently dried at 50° C. for 2-3 hours. Fifty μl/well scintillation cocktail (Perkin Elmer, Shelton, Conn.) was added and plates were counted in a Packard Top-Count for 1 min/well.
κ GTP Emax (%) is the maximal effect elicited by a compound relative to the effect elicited by U69,593.
In TABLE 4, activity response of certain Compounds of the Invention to the μ- and κ-opioid receptors was determined as described above for functional assays using HEK-293 or CHO cells.

For assay [5], the target named is T1, μ-opioid receptor. Briefly: μ-opioid receptor [35S]GTPγS functional assay, U-2 OS cells (Table 5). The format is biochemical. The following applies: for Emax: relative to DAMGO; for EC50: μ GTP. The essentials: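 Membranes (0.026 mg/mL) from cells expressing recombinant human μ-opioid receptor in a U-2 OS background were incubated with 0.20 nM [35S]GTPγS, 3 mM GDP and saponin in 20 mM HEPES pH 7.4, 100 mM NaCl, 10 mM MgCl2 for 30 min at about 25 °C. Filter-bound radioactivity counted; sigmoidal dose-response fits gave values, Emax relative to DAMGO.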

Assay [6] addresses T2, κ-opioid receptor. The assay can be described thus: κ-opioid receptor [35S]GTPγS functional assay, U-2 OS cells (Table 5). The format is biochemical. Particulars: for Emax: relative to U69,593; for EC50: κ GTP. A digest of the protocol:
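[35S]GTPγS binding in κ receptor membranes (0.026 μg/μl protein) with 10 μg/mL saponin, 3 μM GDP and 0.20 nM [35S]GTPγS in pH 7.4 HEPES/NaCl/MgCl2 buffer. Agonist incubation lasted 30 min at about 25 °C, followed by filtration and scintillation counting. Emax is expressed relative to U69,593.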

As usually defined, the Ki is the dissociation constant of the complex between target and ligand, obtained from inhibition or displacement. A word on the Emax: it is the size of the effect at its maximum, as opposed to the concentration needed. Broadly, the EC50 is the concentration giving half of the maximal effect. A low value points to an effect from little substance. Consider `O=C(NCc1ccccc1)[C@@H]1C[C@]23CCN(CC4CC4)[C@H](Cc4ccc(O)cc42)[C@]3(O)C1` [Compound 33, (2R,3aS,4R,9bS)-N-benzyl-12-(cyclopropylmethyl)-3a,8-dihydroxy-1,2,3,3a,4,5-hexahydro-4,9b-(epiminoethano)cyclopenta[a]naphthalene-2-carboxamide], for which the inhibition constant (Ki) was found to be 1.39 ± 0.082 nM on μ-opioid receptor [1] and 0.75 ± 0.13 nM in assay [2]. For the same compound, the maximal effect (Emax) at μ-opioid receptor [3] came to 1%; at κ-opioid receptor [4] it was 43.3 ± 0.33%; on μ-opioid receptor [5] it was 45.7 ± 0.67%; on κ-opioid receptor [6], 103 ± 3.48%. For the same compound, the EC50 was more than 20 µM on μ-opioid receptor [3] (bound given in μM), 7.03 ± 0.82 nM at κ-opioid receptor [4], 3.84 ± 0.21 nM on μ-opioid receptor [5] and 3.18 ± 0.46 nM on κ-opioid receptor [6].
With `O=C(O)[C@@H]1C[C@]23CCN(CC4CC4)[C@H](Cc4ccc(O)cc42)[C@]3(O)C1` [Compound 16, (2R,3aS,4R,9bS)-12-(cyclopropylmethyl)-3a,8-dihydroxy-1,2,3,3a,4,5-hexahydro-4,9b-(epiminoethano)-cyclopenta-[a]naphthalene-2-carboxylic acid], the results for the Ki (on μ-opioid receptor [1]; in assay [2]) were 55.6 ± 11 nM and 17.3 ± 6.19 nM, respectively. The Emax at μ-opioid receptor [3] is 1%; at κ-opioid receptor [4], 38 ± 2.04%; at μ-opioid receptor [5] it was 31.8 ± 3.07%; on κ-opioid receptor [6], 90.7 ± 5.81%. Further, the concentration giving a half-maximal response (EC50) at μ-opioid receptor [3] (bound given in μM) is more than 20 µM; at κ-opioid receptor [4], 12.4 ± 3.66 nM; at μ-opioid receptor [5] it was 4.75 ± 0.62 nM; on κ-opioid receptor [6], 13.2 ± 1.86 nM.
With `O=C(NCc1ccc(O)cc1O)[C@H]1C[C@]23CCN(CC4CC4)[C@H](Cc4ccc(O)cc42)[C@]3(O)C1` [Compound 42, (2S,3aS,4R,9bS)-12-(cyclopropylmethyl)-N-(2,4-dihydroxybenzyl)-3a,8-dihydroxy-1,2,3,3a,4,5-hexahydro-4,9b-(epimino-ethano)cyclopenta[a]naphthalene-2-carboxamide], the values for the Ki (at μ-opioid receptor [1]; in assay [2]) were 0.4 ± 0.024 nM and 0.37 ± 0.13 nM, respectively. The Emax worked out at 1% at μ-opioid receptor [3], 98.3 ± 1.33% at κ-opioid receptor [4], 35 ± 1.15% on μ-opioid receptor [5] and 87.7 ± 4.63% at κ-opioid receptor [6]. Besides, the EC50 at μ-opioid receptor [3] (bound given in μM) is more than 20 µM; at κ-opioid receptor [4] it was 0.32 ± 0.059 nM; on μ-opioid receptor [5] it was 1.33 ± 0.12 nM; at κ-opioid receptor [6], 1.27 ± 0.076 nM.
Take `O=C(NCCN1CCOCC1)[C@H]1C[C@]23CCN(CC4CC4)[C@H](Cc4ccc(O)cc42)[C@]3(O)C1` [Compound 93, (2S,3aS,4R,9bS)-12-(cyclopropylmethyl)-3a,8-dihydroxy-N-(2-morpholinoethyl)-1,2,3,3a,4,5-hexahydro-4,9b-(epimino-ethano)cyclopenta[a]naphthalene-2-carboxamide]: the inhibitory constant (Ki) in assay [2] is 0.64 ± 0.071 nM. On μ-opioid receptor [3], the maximal response (Emax) was determined as 28.8 ± 4.91% and the concentration for a half-maximal effect (EC50) was determined as 0.00395 ± 0.00065 µM. At κ-opioid receptor [4], this compound had a maximal response (Emax) of 81.5 ± 1.27% and an EC50 of 1.52 ± 0.17 nM.
Consider `COc1ccc2c(c1)[C@]13CCN(CC4CC4)[C@H](C2)[C@]1(O)C[C@H](C(N)=O)C3` [Compound 11, (2R,3aS,4R,9bS)-12-(cyclopropylmethyl)-3a-hydroxy-8-methoxy-1,2,3,3a,4,5-hexahydro-4,9b-(epiminoethano)cyclo-penta[a]naphthalene-2-carboxamide], for which the figures for the Ki (on μ-opioid receptor [1]; in assay [2]) were 2980 ± 466 nM and 182 ± 29.2 nM, respectively. Moreover, the Emax on κ-opioid receptor [6] was determined as 103 ± 1.67%. On κ-opioid receptor [6], a half-maximal effect (EC50) was put at 1360 ± 49.8 nM.
Take `O=C(NCc1ccc(Cl)c(Cl)c1)[C@@H]1C[C@]23CCN(CC4CC4)[C@H](Cc4ccc(O)cc42)[C@]3(O)C1` [Compound 46, (2R,3aS,4R,9bS)-12-(cyclopropylmethyl)-N-(3,4-dichlorobenzyl)-3a,8-dihydroxy-1,2,3,3a,4,5-hexahydro-4,9b-(epimino-ethano)cyclopenta[a]naphthalene-2-carboxamide]: the maximum response (Emax) at μ-opioid receptor [3] worked out at 0%; on κ-opioid receptor [4] it was 32 ± 5%; at μ-opioid receptor [5], 38 ± 1.73%; on κ-opioid receptor [6], 106 ± 4.26%. The EC50 at μ-opioid receptor [3] (bound given in μM) was more than 20 µM; at κ-opioid receptor [4], 0.2 ± 0.072 nM; on μ-opioid receptor [5], 0.91 ± 0.05 nM; at κ-opioid receptor [6] it was 0.11 ± 0.01 nM.
As to `O=C(NCc1ccc(O)cc1O)[C@@H]1C[C@]23CCN(CC4CC4)[C@H](Cc4ccc(O)cc42)[C@]3(O)C1` [Compound 41, (2R,3aS,4R,9bS)-12-(cyclopropylmethyl)-N-(2,4-dihydroxybenzyl)-3a,8-dihydroxy-1,2,3,3a,4,5-hexahydro-4,9b-(epimino-ethano)cyclopenta[a]naphthalene-2-carboxamide], the Emax at μ-opioid receptor [3] is 1%; on κ-opioid receptor [4], 35.8 ± 3.07%; at μ-opioid receptor [5], 25.3 ± 1.33%; on κ-opioid receptor [6] it was 86.7 ± 6.74%. Also, the EC50 on μ-opioid receptor [3] (bound given in μM) was more than 20 µM; on κ-opioid receptor [4] it was 1.74 ± 0.47 nM; at μ-opioid receptor [5], 4.19 ± 1.02 nM; on κ-opioid receptor [6] it was 1.02 ± 0.08 nM.
`CC(C)CNC(=O)[C@H]1C[C@]23CCN(CC4CC4)[C@H](Cc4ccc(O)cc42)[C@]3(O)C1` [Compound 36, (2S,3aS,4R,9bS)-12-(cyclopropylmethyl)-3a,8-dihydroxy-N-isobutyl-1,2,3,3a,4,5-hexahydro-4,9b-(epiminoethano)-cyclopenta[a]naphthalene-2-carboxamide]: the Emax came out at 1% at μ-opioid receptor [3], 94.7 ± 3.71% on κ-opioid receptor [4], 47.7 ± 3.18% at μ-opioid receptor [5] and 108 ± 4.1% on κ-opioid receptor [6]. The EC50 at μ-opioid receptor [3] (bound given in μM) is more than 20 µM; on κ-opioid receptor [4], 2.24 ± 0.46 nM; at μ-opioid receptor [5], 1.96 ± 0.27 nM; at κ-opioid receptor [6], 0.27 ± 0.019 nM.
As to `O=C(NCc1ccccc1)[C@H]1C[C@]23CCN(CC4CC4)[C@H](Cc4ccc(O)cc42)[C@]3(O)C1` [Compound 34, (2S,3aS,4R,9bS)-N-benzyl-12-(cyclopropylmethyl)-3a,8-dihydroxy-1,2,3,3a,4,5-hexahydro-4,9b-(epiminoethano)cyclopenta[a]naphthalene-2-carboxamide], the Ki in assay [2] was found to be 0.083 ± 0.014 nM. Also, the Emax at μ-opioid receptor [3] was 40 ± 1.53%; on κ-opioid receptor [4] it was 102 ± 2.73%; at μ-opioid receptor [5] it was 94 ± 0.58%; on κ-opioid receptor [6], 93.3 ± 3.18%. The half-maximal effective concentration (EC50) was 0.00375 ± 0.00066 µM at μ-opioid receptor [3], 0.094 ± 0.011 nM at κ-opioid receptor [4], 0.25 ± 0.027 nM on μ-opioid receptor [5] and 0.02 nM on κ-opioid receptor [6].
